Here are results for 3 compounds from US3959077A (priority 1972, dated 1976).

In data set [1] the test system is binding enzyme exhibiting Na-K-ATPase activity. Description: enzymatic isotope displacement assay: displacement of H^3 ouabain from the binding enzyme. More on the design: species or system guinea pig. The following applies: 0, 2.5, 5, 10, 20 Ng (or ug of digitalis leaf) per 50 μl; FIG. 4. As for the experimental part: The serum extract and aqueous buffered mixtures having known concentrations of cardiac glycosides (hereinafter referred to as standard samples) are incubated with aqueous buffered mixtures containing the novel binding enzyme of the present invention in the presence of radioactive isotope cardiac glycoside, magnesium and sodium ions, ATP a buffering agent and optionally, but preferably, a heavy metal chelating agent. It is preferably that potassium be eliminated from the reagents to optimize the sensitivity of the assay. Ten microliters of the extract are sufficient for the incubation, although smaller and larger amounts may be employed. The binding enzyme is prepared by reacting a binding enzyme precursor or binding material (described below) with a high energy phosphate compound such as adenosine triphosphate (ATP), adenosine diphosphate (ADP), guanosine triphosphate (GTP), guanosine diphosphate (GDP) and the like. The reaction is preferably conducted in the presence of magnesium and/or sodium, preferably both. The reaction is conveniently carried out in the incubation or displacement step reaction mixture. About 4 to 100 micromoles of the high energy phosphate compound are reacted with each amount of the binding enzyme precursor prepared from one gram of animal tissue; although lesser or greater amounts of a high energy phosphate compound may be used. […]
In the above assay, the binding enzyme binds tritiated ouabain in the presence of Na and Mg. […] After centrifugation, the unbound H^3 ouabain in the supernatant fraction is counted by liquid scintillation and compared with known counts for standard concentrations of digoxin. An increase in supernatant radioactivity indicates uptake of digoxin or other cardiac glycoside at the expense of tritiated ouabain. […]
A solution of 250,000 Ng (nanograms) of digoxin per ml of methanol is gravimetrically prepared. […] 50ul of each supernatant is then counted by liquid scintillation. […]

For data set [2] the following is noted: cited from earlier work.
A further data set in a line: clinical. In kind it is in vivo, human. The protocol: A person was admitted to this center 3 hours after having ingested 100 tablets of 0.1mg of digitoxin. They had vomited once. Physical examination was unrevealing. […] The P-R interval was 0.24 seconds. Serum was obtained for assay, urine collection was begun, and vigorous gastric lavage was instituted.
Apparent serum digitoxin on admission was 51.0 Ng/ml, a value close to that of another patient whose atrial fibrillation was under satisfactory control on digitoxin 0.1mg/day. […] The results from both the serum and gastric material were in the hands of ward personnel within 3 hours.
On the basis of this assay information, especially the findings from the gastric material, it was decided by those caring for the patient that they might just have passed the stage where serum levels were highest. Since they were not severe, and since only mild AV block was present, it was felt that they might do well subsequently without further intervention. They were carefully watched, and in fact recovered without further therapy. […]. Four control urine specimens and six specimens at gastric contents from persons not receiving any digitalis gave negative results.

A short description of data set [3]: serum cardiac glycoside levels in patients, measured with the present assay. In kind it is in vivo, human. The following applies: 21 patients with arrhythmias on digoxin therapy; serum drawn at least 6 hours after last dose. The protocol: Digoxin is extracted from patient serum or from plasma as follows: 5ml of serum or plasma is shaken for 30 seconds with 30ml of Chloroform in a 40ml glass-stoppered conical centrifuge tube, and centrifuged for 2 minutes at 1800 rpm (750 × g at tip). The milky top layer and fatty plug are removed with a teflon-tipped aspirator. The bottom chloroform layer is decanted into another 40ml centrifuge tube and evaporated to dryness in 3 to 5 minutes on a Buchler Evapomixer at 60°C. under vacuum. The digoxin thus extracted is rinsed down to the bottom of the tube with 1ml of ethyl ether and evaporated to dryness in a 50°C. water bath under a stream of filtered air.
. The sample is mixed on a Vari-whirl vortex mixer for 20 seconds at full speed and centrifuged for 3 minutes at 1800 rpm. The top toluene layer is removed with a narrow, drawn-out pasteur pipet, and discarded. Duplicate 50μl tris aliquots of the bottom tris layer are then assayed in the same manner as for the standards described in Example 3. No quench correction is required. Only raw 1 or 2 minute counts need be used and the counts of duplicate aliquots are averaged. The amount of digoxin found in each aliquot is obtained by comparison with that day's standard curve.
Serum digoxin levels were measured in 83 nontoxic patients on the medical wards of the Los Angeles County-University of Southern California Medical Center. […]

In another data set the test system is antibody. The settings on record: cited from earlier work.
For data set [4] the following is noted: cited from earlier work. The source holds these as a separate data set.

Each structure is given as a SMILES string. Where two headings read alike, the source gives them in different places.

In the case of `C[C@H]1O[C@@H](O[C@H]2[C@@H](O)C[C@H](O[C@H]3[C@@H](O)C[C@H](O[C@H]4CC[C@@]5(C)[C@H](CC[C@@H]6[C@@H]5CC[C@]5(C)[C@@H](C7=CC(=O)OC7)CC[C@]65O)C4)O[C@@H]3C)O[C@@H]2C)C[C@H](O)[C@@H]1O` [digitoxin], in data set [1], the “displaced H^3 ouabain from the enzyme (potency)” value (“displaced H^3 ouabain” for short) is on record as “approximately equal potency”. Moreover, the “reported therapeutic serum levels relative to those of digoxin” value in data set [2] was 10 to 20 times. In the data set “clinical” (aliquot of 4 liters of lavage material), the “cardiac glycosides in gastric lavage material, equivalent of digitoxin” value was found to be 1.2 µg/mL. Moreover, in the data set “clinical” (human, in vivo, po, 3 hours after ingestion of 100 tablets of 0.1 mg, read-out: apparent serum digitoxin on admission), the concentration at 3 h was 51 ng/mL. Further, the concentration at 24 h in “clinical” (human, in vivo, po, first subsequent day, read-out: subsequent daily serum digitoxin level) was determined as 41 ng/mL; in “clinical” (human, in vivo, po, spot urine, first of the two days after admission, read-out: apparent digitoxin concentration in urine), 848 ng/mL. In addition, the concentration at 48 h in “clinical” (human, in vivo, po, second subsequent day, read-out: subsequent daily serum digitoxin level) was 31.6 ng/mL; in “clinical” (human, in vivo, po, spot urine, second of the two days after admission, read-out: apparent digitoxin concentration in urine), 512 ng/mL. For the same compound, in “clinical” (human, in vivo, po, third subsequent day, read-out: subsequent daily serum digitoxin level), the concentration at 72 h came to 24.4 ng/mL. The “amount removed by lavage” value in “clinical” (of the 10 mg ingested) was determined as 4.8 mg.

As to `C[C@H]1O[C@@H](O[C@H]2[C@@H](O)C[C@H](O[C@H]3[C@@H](O)C[C@H](O[C@H]4CC[C@@]5(C)[C@H](CC[C@@H]6[C@@H]5C[C@@H](O)[C@]5(C)[C@@H](C7=CC(=O)OC7)CC[C@]65O)C4)O[C@@H]3C)O[C@@H]2C)C[C@H](O)[C@@H]1O` [digoxin], the “displaced H^3 ouabain” value in data set [1] is “approximately equal potency”. In addition, the “average serum level (1 S.D.)” value in data set [3] is 3.10 ± 0.76 ng/mL. Also, the “specificity of the immunoassay for digoxin over digitoxin” value in the data set with antibody is listed as 10 fold. The “average toxic level by immunoassay” value in the data set with antibody (toxic patients, serum digoxin) is 3.3 ± 1.5 ng/mL. For the same compound, the “Risk of Arrhythmias” value was “about 10%” in data set [4] (1.4 nanograms per ml of blood serum); “about 25%” in data set [4] (2 nanograms per ml of blood serum); “about 50%” in data set [4] (2.9 nanograms per ml of blood serum); “about 66%” in data set [4] (4 nanograms per ml of blood serum); “about 80%” in data set [4] (5 nanograms per ml of blood serum).

Take `C[C@@H]1O[C@@H](O[C@H]2C[C@@H](O)[C@]3(CO)[C@H]4[C@H](O)C[C@]5(C)[C@@H](C6=CC(=O)OC6)CC[C@]5(O)[C@@H]4CC[C@]3(O)C2)[C@H](O)[C@H](O)[C@H]1O` [ouabain]: the “displaced H^3 ouabain” value in data set [1] was “approximately equal potency”.
